Test results: US9073927B2, “Inhibitors of PI3 kinase” (FUNDACION CENTRO NACIONAL DE INVESTIGACIONES ONCOLOGICAS …, priority 2010, dated 2015)
Like-named read-outs stand apart in the source and are kept apart here. Each block holds one compound with its values, some of them ahead of it.

How the values were obtained:
PI3K (p110α/p85α) = biological target: T1, PI3K (p110α/p85α) (Homo sapiens, UniProt P42336); assay: PI3K activity assay (ADP Hunter Plus); type: biochemical
T1 construct: purchased Carna Biosciences 07CBS-0402A
T1 sequence (P42336 whole entry): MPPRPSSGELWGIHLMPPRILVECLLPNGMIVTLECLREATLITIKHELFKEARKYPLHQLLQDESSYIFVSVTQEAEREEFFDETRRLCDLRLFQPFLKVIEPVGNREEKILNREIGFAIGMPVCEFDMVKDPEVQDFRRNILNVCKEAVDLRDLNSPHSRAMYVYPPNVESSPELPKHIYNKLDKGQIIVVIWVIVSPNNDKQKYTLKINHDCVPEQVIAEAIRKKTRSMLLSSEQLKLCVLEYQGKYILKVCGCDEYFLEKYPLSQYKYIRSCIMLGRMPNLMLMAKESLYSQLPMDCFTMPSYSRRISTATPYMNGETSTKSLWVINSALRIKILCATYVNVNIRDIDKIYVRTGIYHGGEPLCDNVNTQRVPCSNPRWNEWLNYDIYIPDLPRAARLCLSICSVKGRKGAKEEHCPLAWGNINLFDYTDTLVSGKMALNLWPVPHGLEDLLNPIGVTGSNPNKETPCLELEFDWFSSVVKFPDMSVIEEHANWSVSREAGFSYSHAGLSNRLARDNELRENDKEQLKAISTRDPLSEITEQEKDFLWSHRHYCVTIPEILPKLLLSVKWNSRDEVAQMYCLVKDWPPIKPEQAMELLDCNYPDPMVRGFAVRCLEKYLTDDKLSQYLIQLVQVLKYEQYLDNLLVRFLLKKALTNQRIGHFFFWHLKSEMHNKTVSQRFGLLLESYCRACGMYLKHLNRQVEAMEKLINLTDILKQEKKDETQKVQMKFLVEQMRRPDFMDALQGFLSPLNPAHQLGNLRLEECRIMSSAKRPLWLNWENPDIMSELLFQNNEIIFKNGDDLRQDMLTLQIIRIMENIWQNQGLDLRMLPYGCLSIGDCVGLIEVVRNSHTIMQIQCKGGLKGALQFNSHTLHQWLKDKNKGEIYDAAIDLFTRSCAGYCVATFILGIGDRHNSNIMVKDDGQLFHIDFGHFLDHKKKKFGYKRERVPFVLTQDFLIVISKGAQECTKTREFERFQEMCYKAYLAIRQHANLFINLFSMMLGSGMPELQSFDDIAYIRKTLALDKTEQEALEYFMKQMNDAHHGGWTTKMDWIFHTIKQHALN
T1 sequence (P27986 whole entry partner): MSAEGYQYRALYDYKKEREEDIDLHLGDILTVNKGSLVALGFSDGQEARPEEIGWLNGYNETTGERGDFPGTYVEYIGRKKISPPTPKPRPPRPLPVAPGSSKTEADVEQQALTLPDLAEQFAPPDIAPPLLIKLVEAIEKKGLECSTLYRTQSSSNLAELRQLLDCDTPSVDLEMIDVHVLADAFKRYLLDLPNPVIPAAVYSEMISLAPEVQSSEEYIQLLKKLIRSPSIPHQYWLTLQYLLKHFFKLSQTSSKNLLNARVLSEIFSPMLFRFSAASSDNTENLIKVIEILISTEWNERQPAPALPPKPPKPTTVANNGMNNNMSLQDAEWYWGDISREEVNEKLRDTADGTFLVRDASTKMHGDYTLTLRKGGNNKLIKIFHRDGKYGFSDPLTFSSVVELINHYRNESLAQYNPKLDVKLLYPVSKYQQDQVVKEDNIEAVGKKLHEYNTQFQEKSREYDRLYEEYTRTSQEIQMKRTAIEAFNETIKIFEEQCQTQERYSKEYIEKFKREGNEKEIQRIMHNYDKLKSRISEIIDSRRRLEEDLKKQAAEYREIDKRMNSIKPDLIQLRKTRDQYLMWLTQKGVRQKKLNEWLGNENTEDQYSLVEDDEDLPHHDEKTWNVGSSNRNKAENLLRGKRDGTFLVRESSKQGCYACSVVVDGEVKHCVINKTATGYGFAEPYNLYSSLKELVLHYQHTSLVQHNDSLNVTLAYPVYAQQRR
Procedure: The kinase activity was measured by using the commercial ADP Hunter™ Plus assay available from DiscoveRx (#33-016), which is a homogeneous assay to measure the accumulation of ADP, a universal product of kinase activity. The enzyme, PI3K (p110α/p85α was purchased from Carna Biosciences (#07CBS-0402A). The assay was done following the manufacturer recommendations with slight modifications: Mainly the kinase buffer was replace by 50 mM HEPES, pH 7.5, 3 mM MgCl2, 100 mM NaCl, 1 mM EGTA, 0.04% CHAPS, 2 mM TCEP and 0.01 mg/ml BGG. The PI3K was assayed in a titration experiment to determine the optimal protein concentration for the inhibition assay. To calculate the IC50 of the ETP-compounds, serial 1:5 dilutions of the compounds were added to the enzyme at a fixed concentration (2.5 μg/ml. The enzyme was preincubated with the inhibitor and 30 μM PIP2 substrate (P9763, Sigma) for 5 min and then ATP was added to a final 50 μM concentration. Reaction was carried out for 1 hour at 25° C. Reagent A and B were sequentially added to the wells and plates were incubated for 30 min at 37° C. Fluorescence counts were read in a Victor instrument (Perkin Elmer) with the recommended settings (544 and 580 nm as excitation and emission wavelengths, respectively). Values were normalized against the control activity included for each enzyme (i.e., 100% PI3 kinase activity, without compound). These values were plot against the inhibitor concentration and were fit to a sigmoid dose-response curve by using the Graphad software.

phospho-Ser-473-Akt = assay: PI3K signalling: AKT phosphorylation inhibition, Western blot analysis; type: cell-based; settings: read-out: p-AKT (IC50, WB)
Procedure: AKT Phosphorylation Inhibition Western Blot Analysis
Subconfluent cells were incubated under different conditions and washed twice with TBS prior to lysis. Lysis buffer was added containing 50 mM Tris HCl, 150 mM NaCl, 1% NP-40, 2 mM Na3VO4, 100 mM NaF, 20 mM Na4P2O7 and protease inhibitor cocktail (Roche Molecular Biochemicals). The proteins were resolved on 10% SDS-PAGE and transferred to nitrocellulose membrane (Schleicher & Schuell, Dassel, Germany). The membranes were incubated overnight at 4° C. with antibodies specific for Akt, phospho-Ser-473-Akt (Cell Signaling Technology) and α-tubulin (Sigma), they were washed and then incubated with IRDye800 conjugated anti-mouse and Alexa Fluor 680 goat anti-rabbit IgG secondary antibodies. The bands were visualized using an Odyssey infrared imaging system (Li-Cor Biosciences). Compounds of the invention have a range of in vitro cell potency activities from about 1 nM to about 10 μM.
Compounds of the examples/invention were tested in the PI3K signalling cellular assay described hereinbefore (Western Blot Analysis), which measures AKT phosphorylation inhibition. Cellular activity of representative compounds, is represented in the table below: […]

A549 cells = assay: In vitro cell proliferation / combination assay (MTT), A549; type: cell-based; settings: for Synergy / Combination Index (Cl): A549; for Combination Index (Cl): Chou and Talalay; for EC50: Homo sapiens, A549, Lung, Ras G12S
Procedure: (§1) Cells were seeded at 10000-50000 cells/well in 96 plates for 16 h. On day two, nine serial 1:3 compound dilutions were made in DMSO in a 96 well plate. The compounds were added to duplicate wells in 96-well cell plates a using a FX BECKMAN robot (Beckman Coulter) and incubated at 37° C. with CO2 atmosphere. After 3 days, relative numbers of viable cells were measured by MTT (Sigma) according to manufacturer's instruction and read on EndVision (Perkin Elmer). EC50 values were calculated using Activityl)ase from IDBS. Drugs in combination assays were dosed starting at 4×EC50 concentrations and continuing with serial dilutions 1:2. PI3K inhibitors and chemotherapeutic agents were added simultaneously.
An additional exemplary in vitro cell proliferation assay includes the following steps: • 1. An aliquot of 200 μl of cell culture containing optimal density (between 10^4-5×10^4 cells) (see Examples for cell lines and tumour type) in medium was deposited in each well of a 96-well flat bottom plates. • 2. Control wells were prepared containing medium without cells • 3. The compound was added to the experimental wells and incubated for 3 days. • 4. One quarter volume of MTT reagent with respect to the volume of cell culture medium present in each well was added and incubated 24 h at 37° C. with 5% CO2. • 5. One quarter volume of solubilisation buffer with respect to the volume of cell culture medium present in each well was added and incubated 24 h at 37° C. with 5% CO2. • 6. Formazan salt formed was recorded and reported in graphs as relative growth vs. cells treated only with dmso.
(§2) The individual measured EC50 values against the particular cell of the exemplary compounds and of the chemotherapeutic agent are compared to the combination EC50 value. The combination Index (CI) score is calculated by the Chou and Talalay method (CalcuSyn software, Biosoft). A CI less 0.8 indicates synergy. A CI between 0.8 and 1.2 indicates additivity. A CI greater than 1.2 indicates antagonism.
as §2, with “agents” for “agent”

SKVO3 cells = assay: In vitro cell proliferation / combination assay (MTT), SKVO3; type: cell-based; settings: SKVO3, Ovarian, PIK3CA, p53
Procedure: as §1, with “PI3K inhibitors and chemotherapeutic agents were added simultaneously.” left out
An additional exemplary in vitro cell proliferation assay includes the following steps: • 1. […] Formazan salt formed was recorded and reported in graphs as relative growth vs. cells treated only with dmso.
The individual measured EC50 values against the particular cell of the exemplary compounds and of the chemotherapeutic agent are compared to the combination EC50 value. The combination Index (CI) score is calculated by the Chou and Talalay method (CalcuSyn software, Biosoft). […]
The individual measured EC50 values against the particular cell of the exemplary compounds and of the chemotherapeutic agents are compared to the combination EC50 value. The combination Index (CI) score is calculated by the Chou and Talalay method (CalcuSyn software, Biosoft). […]

[1] = combination of 2-4 with Lapatinib
[2] = combination of 2-4 with PD-0325901
[3] = compound alone, read-out: Compound No. 2-4 (comp. (A)) EC50
[4] = therapeutic (comp. (B)) alone, read-out: Chemot. EC50

Structure (SMILES): OCc1cc2c(N3CCOCC3)nc(-c3cccc(O)c3)cn2n1 [Compound 3-2]
IC50 (PI3K (p110α/p85α); Table 4, read-out: PI3Kα): 174 nM

Structure (SMILES): Cc1nnc2c(N3CCOCC3)nc(-c3cnc(N)nc3)cn12 [Compound 3-5]
IC50 (PI3K (p110α/p85α); Table 4, read-out: PI3Kα): 165 nM

Structure (SMILES): Cc1nnc2c(N3CCOCC3)nc(-c3cccc(O)c3)cn12 [Compound 3-6]
IC50 (PI3K (p110α/p85α); Table 4, read-out: PI3Kα): 952 nM

Structure (SMILES): Oc1cccc(-c2cn3cncc3c(N3CCOCC3)n2)c1 [Compound 3-11]
IC50 (PI3K (p110α/p85α); Table 4, read-out: PI3Kα): 317 nM

Structure (SMILES): COc1cccc(-c2cn3cncc3c(N3CCOCC3)n2)c1 [Compound 3-12, 6-(3-methoxy-phenyl)-8-morpholin-4-yl-imidazo[1,5-a]pyrazine]
IC50 (PI3K (p110α/p85α); Table 4, read-out: PI3Kα): 2000 nM

Structure (SMILES): COCCN(C)Cc1cc2c(N3CCOCC3)nc(-c3cnc(N)nc3)cn2n1 [Compound 3-14, 5-(2-{[(2-methoxy-ethyl)-methyl-amino]-methyl}-4-morpholin-4-yl-pyrazolo[1,5-a]pyrazin-6-yl)-pyrimidin-2-ylamine]
IC50 (PI3K (p110α/p85α); read-out: IC50 PI3Kα): 106 nM

Structure (SMILES): CS(=O)(=O)CCNCc1ccc(-c2ccc3ncnc(Nc4ccc(OCc5cccc(F)c5)c(Cl)c4)c3c2)o1 [Lapatinib, N-(3-chloro-4-(3-fluorobenzyloxy)phenyl)-6-(5-((2-(methylsulfonyl)ethylamino)-methyl)furan-2-yl)quinazolin-4-amine, reference compound]
EC50 (A549 cells; [4]): 1000 nM

Structure (SMILES): O=C(NOC[C@H](O)CO)c1ccc(F)c(F)c1Nc1ccc(I)cc1F [PD-0325901, (R)—N-(2,3-dihydroxypropoxy)-3,4-difluoro-2-(2-fluoro-4-iodophenylamino)benz-amide, reference compound]
EC50 (A549 cells; [4]): 1000 nM

Structure (SMILES): CC(=O)O[C@@]12CO[C@@H]1C[C@H](O)[C@@]1(C)C(=O)[C@H](O)C3=C(C)[C@@H](OC(=O)[C@H](O)[C@@H](NC(=O)OC(C)(C)C)c4ccccc4)C[C@](O)([C@@H](OC(=O)c4ccccc4)[C@H]21)C3(C)C [Taxotere, (2R,3S)—N-carboxy-3-phenylisoserine, N-tert-butyl ester, 13-ester with 5,20-epoxy-1,2,4,7,10,13-hexahydroxytax-11-en-9-one 4-acetate 2-benzoate, trihydrate, reference compound]
EC50 (SKVO3 cells; [4]): 2000 nM

Continued, in another order:

IC50 (PI3K (p110α/p85α); Table 3, read-out: PI3Kα): 128 nM
Structure (SMILES): CS(=O)(=O)N1CCN(Cc2nc3c(N4CCOCC4)nc(-c4cccc5[nH]ncc45)cn3n2)CC1 [Compound 2-2]

IC50 (PI3K (p110α/p85α); Table 3, read-out: PI3Kα): 3 nM
IC50 (phospho-Ser-473-Akt): 12 nM
Structure (SMILES): CS(=O)(=O)N1CCN(Cc2nc3c(N4CCOCC4)nc(-c4cnc(N)nc4)cn3n2)CC1 [Compound 2-3]

IC50 (PI3K (p110α/p85α); Table 3, read-out: PI3Kα): 1.4 nM
IC50 (phospho-Ser-473-Akt): 64 nM
EC50 (A549 cells; [3]): 1000 nM
EC50 (SKVO3 cells; [3]): 1000 nM
Structure (SMILES): CS(=O)(=O)N1CCN(Cc2nc3c(N4CCOCC4)nc(-c4cnc(N)nc4)c(Cl)n3n2)CC1 [Compound 2-4]
Synergy (A549 cells; [1]): − (a combination index greater than 1.2)
Combination Index (Cl) (A549 cells; [1]): 2.44
Synergy (A549 cells; [2]): +++ (a combination index greater than 0.1 but lower than 0.3)
Combination Index (Cl) (A549 cells; [2]): 0.27

IC50 (PI3K (p110α/p85α); Table 4, read-out: PI3Kα): 3 nM
IC50 (phospho-Ser-473-Akt): 5 nM
Structure (SMILES): CS(=O)(=O)N1CCN(Cc2cn3nc(-c4cnc(N)nc4)nc(N4CCOCC4)c3n2)CC1 [Compound 3-9]

IC50 (PI3K (p110α/p85α); Table 4, read-out: PI3Kα): 2 nM
IC50 (phospho-Ser-473-Akt): 14 nM
Structure (SMILES): CS(=O)(=O)N1CCN(Cc2cc3c(N4CCOCC4)nc(-c4cnc(N)nc4)cn3n2)CC1 [Compound 3-10, 5-[2-(4-methanesulfonyl-piperazin-1-ylmethyl)-4-morpholin-4-yl-pyrazolo[1,5-a]pyrazin-6-yl]-pyrimidin-2-ylamine]

IC50 (PI3K (p110α/p85α); read-out: IC50 PI3Kα): 58 nM
Structure (SMILES): CS(=O)(=O)N1CCC(NCc2cc3c(N4CCOCC4)nc(-c4cnc(N)nc4)cn3n2)CC1 [Compound 3-13, 5-{2-[(1-methanesulfonyl-piperidin-4-ylamino)-methyl]-4-morpholin-4-yl-pyrazolo[1,5-a]pyrazin-6-yl}-pyrimidin-2-ylamine]

IC50 (PI3K (p110α/p85α); read-out: IC50 PI3Kα): 13 nM
Structure (SMILES): CS(=O)(=O)N1CCCN(Cc2cc3c(N4CCOCC4)nc(-c4cnc(N)nc4)cn3n2)CC1 [Compound 3-16, 5-[2-(4-methanesulfonyl-[1,4]diazepan-1-ylmethyl)-4-morpholin-4-yl-pyrazolo[1,5-a]pyrazin-6-yl]-pyrimidin-2-ylamine]

IC50 (PI3K (p110α/p85α); read-out: IC50 PI3Kα): 80 nM
Structure (SMILES): Nc1ncc(-c2cn3nc(CN4CCOCC4)cc3c(N3CCOCC3)n2)cn1 [Compound 3-17, 5-(4-morpholin-4-yl-2-morpholin-4-ylmethyl-pyrazolo[1,5-a]pyrazin-6-yl)-pyrimidin-2-ylamine]

IC50 (PI3K (p110α/p85α); read-out: IC50 PI3Kα): 6 nM
Structure (SMILES): CC(C)S(=O)(=O)N1CCN(Cc2cc3c(N4CCOCC4)nc(-c4cnc(N)nc4)cn3n2)CC1 [Compound 3-18, 5-{4-morpholin-4-yl-2-[4-(propane-2-sulfonyl)-piperazin-1-ylmethyl]-pyrazolo[1,5-a]pyrazin-6-yl}-pyrimidin-2-ylamine]
